The target of data set [1] is diacylglycerol acyltransferase. Put plainly: Inhibitory action against rat-originated diacylglycerol acyltransferase (rat liver microsomal fraction). The settings on record: [1-14C]palmitoyl-CoA, 23° C., 15 minutes. In kind it is biochemical. As to the method:
(1) Inhibitory Action against Rat-originated Diacylglycerol Acyltransferase
The activity of diacylglycerol acyltransferase was determined in accordance with the method of Mayorek and BarTana, [J. Biol. Chem., 260, 6528-6532 (1985)] with partial modification.
Namely, a microsomal fraction prepared from rat liver was used as the enzyme source. To a 175 mM Tris-HCl buffer (pH 8.0) containing 8 mM of MgCl2, 1 mg/ml of bovine serum albumin and 2.5 mM of diisopropyl fluorophosphate, there were added 0.75 mM of dioleoylglycerol and 30 μM of [1^−14C] palmitoyl-CoA (0.02 μCi) and the total volume was adjusted to 200 μl, whereupon the enzymatic reaction mixture was incubated at 23° C. for 15 minutes. The total lipids were extracted with chloroform/methanol (1/2) mixture and each lipid was separated by a TLC (with Kiselgel GF254 and a developing solvent of petroleum ether/diethyl ether/acetic acid of 80/20/1), followed by measurement of the radioactivity of the triacylglycerol fraction using RI RADIO-SCANNER (manufactured by AMBIS System Inc., U.S.A.) to determine the diacylglycerol acyltransferase activity.
For orientation: Microsomes from liver hold many membrane-bound enzymes, among them those of drug oxidation.

The subject of data set [2] is Raji cell originating from human Burkitt lymphoma (triacylglycerol synthesis). The data set can be described thus: Inhibitory action against synthesis of triacylglycerol in human-originated Raji cells. It is filed as cell-based. The note with it: [1-14C]oleic acid, 37° C., 30 minutes; for IC50: Homo sapiens, 0.5 h, read-out: drug concentration corresponding to 50% inhibition of triacylglycerol synthesis. As to the method: (2) Inhibitory Action against Synthesis of Triacylglycerol in Human-originated Cells (Raji Cell originating from Human Burkitt Lymphoma)
The assessment of the influence of the substances on triacylglycerol synthesis was performed in accordance with the method of Tomoda et al. [J. Biol. Chem., 266, 4214-4219 (1991)] using human-originated cells (Raji cell originated from human Burkitt lymphoma). A Raji cell dispersion of 2.7×10^6 cells per milliliter containing […] [1^−14C] oleic acid (0.02 μCi) was filled up to a total volume 200 μl, whereupon the reaction proceeded at 37° C. for 30 minutes. The total lipids were extracted with a chloroform/methanol (2/1) mixture. Then, the activity was measured in the same manner as in the “inhibitory action against rat-originated diacylglycerol-acyltransferase”.
The calculation of the drug concentration corresponding to 50% inhibition of triacylglycerol synthesis gives a value of 10 μg/ml for all the substances KF-1040T4A, KF-1040T4B, KF-1040T5A and KF-1040T5B.

In another data set the target is T1, acid sphingomyelinase (Homo sapiens, UniProt P17405).
T1 construct: an acid sphingomyelinase originating from human placenta (a product of Sigma Co.) was used as the enzyme source; purchased Sigma Co; host or cells: human placenta (tissue-derived enzyme)
T1 sequence (P17405 47-631): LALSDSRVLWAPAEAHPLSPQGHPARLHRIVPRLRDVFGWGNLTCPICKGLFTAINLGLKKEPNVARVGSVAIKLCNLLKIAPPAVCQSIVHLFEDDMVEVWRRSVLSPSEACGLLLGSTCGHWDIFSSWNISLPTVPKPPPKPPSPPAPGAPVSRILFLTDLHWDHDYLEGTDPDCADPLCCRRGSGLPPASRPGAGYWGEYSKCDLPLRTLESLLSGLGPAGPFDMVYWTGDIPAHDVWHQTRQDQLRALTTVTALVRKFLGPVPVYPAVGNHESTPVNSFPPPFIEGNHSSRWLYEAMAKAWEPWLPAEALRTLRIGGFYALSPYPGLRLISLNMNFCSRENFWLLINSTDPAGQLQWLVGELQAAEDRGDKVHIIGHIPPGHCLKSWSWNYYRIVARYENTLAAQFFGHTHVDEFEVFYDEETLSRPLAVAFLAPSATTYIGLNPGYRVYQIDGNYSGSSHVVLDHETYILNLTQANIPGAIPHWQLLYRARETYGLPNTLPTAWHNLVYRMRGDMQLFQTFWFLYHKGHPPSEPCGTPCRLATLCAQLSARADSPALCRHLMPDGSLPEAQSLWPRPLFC
The data set can be described thus: Influence on human placenta-originated acid sphingomyelinase. In kind it is biochemical. The note with it: human placenta enzyme (Sigma), pH 5.0, 37° C., 30 minutes; read-out: concentration corresponding to 50% inhibition of acid sphingomyelinase (converted). Here is the method:
(4) Influence on Human Placenta-originated Acid Sphingomyelinase
The assessment of the influence of the substances on human placenta-originated acidic sphingomyelinase was performed in accordance with the method of Jones et al. [Biochem. Journal, 195, 373-382 (1981)] with partial modification.
Thus, an acid sphingomyelinase originating from human placenta (a product of Sigma Co.) was used as the enzyme source and thereto were added 250 mM of sodium acetate buffer solution (pH 5.0), 0.1% of NP-40 (a product of Sigma Co.), and 25 μM [N-methyl-^3H] sphingomyelin (0.006 μCi), and the mixture was filled up to a total volume of 50 μl. After reaction at 37° C. for 30 minutes, 200 μl of chloroform/methanol mixture (1/2 in volume ratio) was added thereto to separate the reaction product [^3H] phosphocholine from the starting material [^3H] sphingomyelin. The upper layer was taken up into a […]. The amount of [^3H] phosphocholine was quantitatively determined by a liquid scintillation counter to estimate the acid sphingomyelinase activity.

The next data set can be described thus: Solubility in solvents. It is filed as physicochemical.

Structures are written as SMILES. In brackets after ≈: the same amount, converted by molar mass.

For `CCC(C)CC(C)CC(C)C(OC1OC(CO)C(O)C(O)C1O)C(C)/C=C(\C)C(O)C(C)/C=C(\C)C(O)C(C)/C=C(\C)C(=O)OCC(O)C(O)C(O)CO` (single isomer, unassigned) [KF-1040T4A], in data set [1], the “drug concentration corresponding to 50% inhibition of diacylglycerol acyltransferase” value was 13.2 µg/mL. The IC50 in data set [2] was 10 µg/mL (≈ 12.9 µM). For the same molecule, the IC50 on acid sphingomyelinase is 300 µM. Moreover, in “Solubility in solvents”, the “Solubility in solvents: methanol, benzene, chloroform and ethyl acetate” value (“Solubility in solvents: methanol” below) is given as “soluble”; the “Solubility in solvents: water and hexane” value is “slightly soluble”.

As to `CCC(C)CC(C)CC(C)C(OC1OC(CO)C(O)C(O)C1O)C(C)/C=C(\C)C(O)C(C)/C=C(\C)C(O)C(C)/C=C(\C)C(=O)OCC(O)C(O)C(O)CO` (single isomer, unassigned) [KF-1040T4B], the “drug concentration corresponding to 50% inhibition of diacylglycerol acyltransferase” value in data set [1] was 11.6 µg/mL. In addition, the “drug concentration corresponding to 50% inhibition of triacylglycerol synthesis” value in data set [2] came out at 10 µg/mL. In addition, on acid sphingomyelinase, the IC50 is 90.1 µM. Also, in “Solubility in solvents”, the “Solubility in solvents: methanol” value is “soluble”; the “Solubility in solvents: water and hexane” value is reported as “slightly soluble”.

In the case of `CCC(C)CC(C)CC(C)C(OC1OC(COC(C)=O)C(O)C(O)C1O)C(C)/C=C(\C)C(O)C(C)/C=C(\C)C(O)C(C)/C=C(\C)C(=O)OCC(O)C(O)C(O)CO` (single isomer, unassigned) [KF-1040T5A], the “drug concentration corresponding to 50% inhibition of diacylglycerol acyltransferase” value in data set [1] is 18.0 µg/mL. For the same molecule, the IC50 in data set [2] was 10 µg/mL (≈ 12.2 µM). In addition, the IC50 at acid sphingomyelinase is 239 µM. Also, in the data set “Solubility in solvents”, the “Solubility in solvents: methanol” value is “soluble”; the “Solubility in solvents: water and hexane” value was “slightly soluble”.

On to `CCC(C)CC(C)CC(C)C(OC1OC(COC(C)=O)C(O)C(O)C1O)C(C)/C=C(\C)C(O)C(C)/C=C(\C)C(O)C(C)/C=C(\C)C(=O)OCC(O)C(O)C(O)CO` (single isomer, unassigned) [KF-1040T5B], for which the “drug concentration corresponding to 50% inhibition of diacylglycerol acyltransferase” value in data set [1] is 14.7 µg/mL. Further, the “drug concentration corresponding to 50% inhibition of triacylglycerol synthesis” value in data set [2] was found to be 10 µg/mL. At acid sphingomyelinase, the IC50 is 59.8 µM. Besides, in “Solubility in solvents”, the “Solubility in solvents: methanol” value was “soluble”; the “Solubility in solvents: water and hexane” value is “slightly soluble”.

For the origin of these results see patent US6608185B1, “Substances KF-1040T4A,KF-1040T4B, KF-1040T5A, and KF-1040T5B, and process for producing same” (Kitasato Institute, priority 2002, dated 2003).
